From US10689414B2 (Agios Pharmaceuticals, Inc., priority 2013, dated 2020) come the findings set out here.

SMILES strings stand for the structures. Some results are limits rather than exact numbers.

The IC50 is the concentration at which inhibition is half-maximal. Higher therefore signals lower potency.

This experiment concerns U87MG cells. Description: Cellular assay, inhibition of 2-HG production in U87MG cells. The format is cell-based. The note with it: Homo sapiens, U-87 MG, 48 h. In short, it runs like this: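 HT1080 or U87MG cells (U87MG kept with 500 ug/mL G418) seeded at 5000 cells/well and treated with compound at 0.2% final DMSO. Incubated 48 h at 37 °C. 2-HG inhibition determined by LC-MS. Viability read by CellTiter-Glo luminescence at 72 h post-dose.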
Regarding `N#Cc1ccnc(N2C(=O)CC[C@H]2C(=O)N(c2cc(F)cc(C3CC3)c2)[C@H](C(=O)NC2CC(F)(F)C2)c2ccccc2Cl)c1` [Compound 204, (S)—N—((S)-1-(2-Chlorophenyl)-2-((3,3-difluorocyclobutyl)amino)-2-oxoethyl)-1-(4-cyanopyri-din-2-yl)-N-(3-cyclopropyl-5-fluorophenyl)-5-oxopyrrolidine-2-carboxamide], the IC50 was under 100 nM.

The compound `O=C(NC1CC(F)(F)C1)[C@H](c1ccccc1Cl)N(C(=O)[C@@H]1COCC(=O)N1c1ncccn1)c1cccc(F)c1` [Compound 30, (S)—N—((S)-1-(2-chlorophenyl)-2-((3,3-difluorocyclobutyl)amino)-2-oxoethyl)-N-(3-fluorophenyl)-5-oxo-4-(pyrimidin-2-yl)morpholine-3-carboxamide] had an IC50 of 100 to 500 nM.

The compound `N#Cc1ccnc(N2C(=O)CC[C@H]2C(=O)N(c2cncc(F)c2)[C@H](C(=O)NC2CCC(F)(F)CC2)c2ccccc2Cl)c1` [Compound 193, (S)—N—((S)-1-(2-Chlorophenyl)-2-(4,4-difluorocyclohexylamino)-2-oxoethyl)-1-(4-cyanopyridin-2-yl)-N-(5-fluoropyridin-3-yl)-5-oxopyrrolidine-2-carboxamide] had a 50% inhibitory concentration (IC50) of under 100 nM.

The compound `CC(=O)N1CC(=O)N(c2cc(C#N)ccn2)[C@H](C(=O)N(c2cccc(F)c2)[C@H](C(=O)NC2CC(F)(F)C2)c2ccccc2Cl)C1` [Compound 92, (S)-4-Acetyl-N—((S)-1-(2-chlorophenyl)-2-(3,3-difluorocyclobutylamino)-2-oxoethyl)-1-(4-cyanopyridin-2-yl)-N-(3-fluorophenyl)-6-oxopiperazine-2-carboxamide] came in with an IC50 of under 100 nM.

As to `O=C(NC1CCCCC1)[C@H](c1ccccc1Cl)N(C(=O)[C@@H]1CCC(=O)N1c1ncccn1)c1cccc(F)c1` [Compound 7], the IC50 was under 100 nM.

`N#Cc1ccnc(N2C(=O)[C@H](O)C[C@H]2C(=O)N(c2cc(F)cc(F)c2)[C@@H](C(=O)NC2CCC(F)(F)CC2)c2ccccc2Cl)n1` [Compound 126, (2S,4R)—N—((R)-1-(2-Chlorophenyl)-2-(4,4-difluorocyclohexylamino)-2-oxoethyl)-1-(4-cyanopyrimidin-2-yl)-N-(3,5-difluorophenyl)-4-hydroxy-5-oxopyrrolidine-2-carboxamide] showed an IC50 of 100 to 500 nM.

Compound `N#Cc1ccnc(N2C(=O)CC[C@H]2C(=O)N(c2cccc(F)c2)[C@H](C(=O)NC2CC(F)(F)C2)c2ccccc2Cl)n1` [Compound 68, (S)—N—((S)-1-(2-Chlorophenyl)-2-((3,3-difluorocyclobutyl)amino)-2-oxoethyl)-1-(4-cyanopyrimidin-2-yl)-N-(3-fluorophenyl)-5-oxopyrrolidine-2-carboxamide] registered a half-inhibitory concentration (IC50) of under 100 nM.

In turn, `N#Cc1ccnc(N2C(=O)CC[C@H]2C(=O)N(c2cc(F)cc(F)c2)[C@H](C(=O)NC2CC(F)(F)C2)c2ccccc2Cl)n1` [Compound 86, (S)—N—((S)-1-(2-Chlorophenyl)-2-((3,3-difluorocyclobutyl)amino)-2-oxoethyl)-1-(4-cyanopyrimidin-2-yl)-N-(3,5-difluorophenyl)-5-oxopyrrolidine-2-carboxamide] gave an IC50 of under 100 nM.

`N#Cc1cccc(N(C(=O)[C@@H]2CCC(=O)N2c2cc(C#N)ccn2)[C@H](C(=O)NC2CCC(F)(F)CC2)c2ccccc2Cl)c1` [Compound 166, (S)—N—((S)-1-(2-Chlorophenyl)-2-((4,4-difluorocyclohexyl)amino)-2-oxoethyl)-N-(3-cyanophenyl)-1-(4-cyanopyridin-2-yl)-5-oxopyrrolidine-2-carboxamide]: the concentration for half-maximal inhibition (IC50) was under 100 nM.

On to `N#Cc1ccnc(N2C(=O)[C@H](O)C[C@H]2C(=O)N(c2cccc(F)c2)[C@H](C(=O)NC2CCC(F)(F)CC2)c2ccccc2Cl)c1` [Compound 121, (2S,4R)—N—((S)-1-(2-Chlorophenyl)-2-((4,4-difluorocyclohexyl)amino)-2-oxoethyl)-1-(4-cyanopyridin-2-yl)-N-(3-fluorophenyl)-4-hydroxy-5-oxopyrrolidine-2-carboxamide], for which the IC50 is under 100 nM.

The compound `N#Cc1ccnc(N2C(=O)[C@H](O)C[C@H]2C(=O)N(c2cc(F)cc(F)c2)[C@H](C(=O)NC2CC(F)(F)C2)c2ccccc2Cl)n1` [Compound 117, (2S,4R)—N—((S)-1-(2-Chlorophenyl)-2-((3,3-difluorocyclobutyl)amino)-2-oxoethyl)-1-(4-cyanopyrimidin-2-yl)-N-(3,5-difluorophenyl)-4-hydroxy-5-oxopyrrolidine-2-carboxamide] gave an IC50 of under 100 nM.

Turning to `O=C(NC1CCC(F)(F)C1)C(c1ccccc1Cl)N(C(=O)[C@@H]1CCC(=O)N1c1ncccn1)c1cccc(F)c1` (mixture of isomers) [Compound 73, (2S)—N-(1-(2-Chlorophenyl)-2-((3,3-difluorocyclopentyl)amino)-2-oxoethyl)-N-(3-fluorophenyl)-5-oxo-1-(pyrimidin-2-yl)pyrrolidine-2-carboxamide], the half-inhibitory concentration (IC50) was under 100 nM.

In turn, `N#Cc1ccnc(N2C(=O)CC[C@H]2C(=O)N(c2ccc3[nH]ncc3c2)[C@H](C(=O)NC2CCC(F)(F)CC2)c2ccccc2Cl)c1` [Compound 203, (S)—N—((S)-1-(2-Chlorophenyl)-2-((4,4-difluorocyclohexyl)amino)-2-oxoethyl)-1-(4-cyanopyridin-2-yl)-N-(1H-indazol-5-yl)-5-oxopyrrolidine-2-carboxamide] gave an IC50 of under 100 nM.

For `N#Cc1ccnc(N2C(=O)OCC[C@H]2C(=O)N(c2cc(F)cc(F)c2)[C@H](C(=O)NC2CC(F)(F)C2)c2ccccc2Cl)n1` [Compound 154, (S)—N—((S)-1-(2-Chlorophenyl)-2-((3,3-difluorocyclobutyl)amino)-2-oxoethyl)-3-(4-cyanopyrimidin-2-yl)-N-(3,5-difluorophenyl)-2-oxo-1,3-oxazinane-4-carboxamide], the IC50 is under 100 nM.

As to `N#Cc1ccnc(N2C(=O)CC[C@H]2C(=O)N(c2ccc3[nH]ncc3c2)[C@H](C(=O)NC2CC(F)(F)C2)c2ccccc2Cl)c1` [Compound 175, (S)—N—((S)-1-(2-Chlorophenyl)-2-((3,3-difluorocyclobutyl)amino)-2-oxoethyl)-1-(4-cyanopyri-din-2-yl)-N-(1H-indazol-5-yl)-5-oxopyrrolidine-2-carboxamide], the IC50 is under 100 nM.

The compound `N#Cc1ccnc(N2C(=O)[C@H](O)C[C@H]2C(=O)N(c2cc(F)cc(F)c2)[C@H](C(=O)NC2CC(F)(F)C2)c2ccccc2Cl)c1` [Compound 115, (2S,4R)—N—((S)-1-(2-Chlorophenyl)-2-((3,3-difluorocyclobutyl)amino)-2-oxoethyl)-1-(4-cyanopyridin-2-yl)-N-(3,5-difluorophenyl)-4-hydroxy-5-oxopyrrolidine-2-carboxamide] displayed an IC50 of under 100 nM.

The compound `CCOC(=O)CN1C[C@@H](C(=O)N(c2cccc(F)c2)[C@H](C(=O)NC2CC(F)(F)C2)c2ccccc2Cl)N(c2cc(C#N)ccn2)C1=O` [Compound 94, Ethyl 2-((4S)-4-((1-(2-chlorophenyl)-2-((3,3-difluorocyclobutyl)amino)-2-oxoethyl)(3-fluorophenyl)carbamoyl)-3-(4-cyanopyridin-2-yl)-2-oxoimidazolidin-1-yl)acetate] registered an IC50 of under 100 nM.

In turn, `N#Cc1ccnc(N2C(=O)[C@@H](O)C[C@H]2C(=O)N(c2cccc(F)c2)[C@H](C(=O)NC2CC(F)(F)C2)c2ccccc2Cl)n1` [Compound 119, (2S,4S)—N—((S)-1-(2-Chlorophenyl)-2-(3,3-difluorocyclobutylamino)-2-oxoethyl)-1-(4-cyanopyrimidin-2-yl)-N-(3-fluorophenyl)-4-hydroxy-5-oxopyrrolidine-2-carboxamide] came in with an IC50 of 100 to 500 nM.

Regarding `N#Cc1cc(F)cc(N(C(=O)[C@@H]2CCC(=O)N2c2cc(C#N)ccn2)[C@H](C(=O)NC2CCC(F)(F)CC2)c2ccccc2Cl)c1` [Compound 184, (S)—N—((S)-1-(2-Chlorophenyl)-2-(4,4-difluorocyclohexylamino)-2-oxoethyl)-N-(3-cyano-5-fluorophenyl)-1-(4-cyanopyridin-2-yl)-5-oxopyrrolidine-2-carboxamide], the IC50 is under 100 nM.

Consider `O=C(NC1CC(F)(F)C1)[C@H](c1ccccc1Cl)N(C(=O)[C@@H]1COC(=O)N1c1cscn1)c1cccc(F)c1` [Compound 72], for which the IC50 was under 100 nM.

Turning to `N#Cc1ccnc(N2C(=O)CC[C@H]2C(=O)N(c2cc(F)cc(F)c2)C(C(=O)NC2CC(F)(F)C2)c2cccc(Cl)c2Cl)c1` (stereo partly drawn) [Compound 195, (2S)-1-(4-Cyanopyridin-2-yl)-N-(1-(2,3-dichlorophenyl)-2-(3,3-difluoro-cyclobutylamino)-2-oxoethyl)-N-(3,5-difluorophenyl)-5-oxopyrrolidine-2-carboxamide], the IC50 is under 100 nM.

With `N#Cc1ccnc(N2C(=O)CNC[C@H]2C(=O)N(c2cc(F)cc(F)c2)[C@H](C(=O)NC2CC(F)(F)C2)c2ccccc2Cl)n1` [Compound 99, (S)—N—((S)-1-(2-chlorophenyl)-2-((3,3-difluorocyclobutyl)amino)-2-oxoethyl)-1-(4-cyanopyrimidin-2-yl)-N-(3,5-difluorophenyl)-6-oxopiperazine-2-carboxamide], the IC50 was under 100 nM.

In turn, `O=C(NC1CCC(F)(F)CC1)[C@H](c1ccccc1Cl)N(C(=O)[C@@H]1COC(=O)N1c1ncccn1)c1cccc(F)c1` [Compound 76, (S)—N—((S)-1-(2-Chlorophenyl)-2-((4,4-difluorocyclohexyl)amino)-2-oxoethyl)-N-(3-fluoro-phenyl)-2-oxo-3-(pyrimidin-2-yl)oxazolidine-4-carboxamide] had an IC50 of under 100 nM.

For `N#Cc1ccnc(N2C(=O)[C@@H](O)C[C@H]2C(=O)N(c2cccc(F)c2)[C@H](C(=O)NC2CC(F)(F)C2)c2ccccc2Cl)c1` [Compound 118, (2S,4S)—N—((S)-1-(2-Chlorophenyl)-2-(3,3-difluorocyclobutylamino)-2-oxoethyl)-1-(4-cyano-pyridin-2-yl)-N-(3-fluorophenyl)-4-hydroxy-5-oxopyrrolidine-2-carboxamide], the half-inhibitory concentration (IC50) was under 100 nM.
